# In patent EP2368895A1, “Ferrocenyl flavonoids” (Centre National de la Recherche Scientifique (CNRS), priority 2010, dated 2011):
# Tested on: Murine B16 melanoma cells
# Settings: for IC50: murine B16 melanoma cells, MTT, 48 h exposure time, mean ± SD of 3 determinations
# Protocol: Murine B16 melanoma cells were grown in Dulbecco's modified essential medium (DMEM) containing 2 mM L-glutamine, 10% fetal bovine serum, 100 U/ml penicillin and 100 µg/ml streptomycin (37°C, 5% CO2). Stock solutions of the compounds were prepared in DMSO and further diluted in DMEM at the indicated concentrations with a final DMSO concentration of not exceeding 1%. Exponentially growing cells were plated onto 96-well plates at a density of 5000 cells per well in 200 µl DMEM, and 24 h later the compounds were added for another 48 h. Control wells were exposed to 1% DMSO. Viability was assessed using the MTT (1-(4,5-dimethylthiazol-2-yl)-3,5-diphenyltetrazolium) test and absorbance was read at 562 nm in a microplate reader (BioKinetics Reader, EL340) (Carmichael et al. 1987).
Substance,IC50,cytotoxic activity
2-ferrocenyl-4H-chromen-4-one [Compound 2a],33.9 ± 0.8 µM,–
"6,8-dibromo-2-ferrocenyl-4H-chromen-4-one [Compound 2e]",13.7 ± 1 µM,–
"6,8-dichloro-2-ferrocenyl-4H-chromen-4-one [Compound 2d]",12.1 ± 0.4 µM,–
"6,8-difluoro-2-ferrocenyl-4H-chromen-4-one [Compound 2f]",18 ± 0.2 µM,–
6-bromo-2-ferrocenyl-4H-chromen-4-one [Compound 2c],15.9 ± 0.3 µM,–
6-chloro-2-ferrocenyl-4H-chromen-4-one [Compound 2b],15.6 ± 0.3 µM,–
(E)-1-(2-hydroxyphenyl)-3-ferrocenylprop-2-en-1-one [Compound 1a],43.7 ± 1.8 µM,–
"(E)-1-(3,5-dibromo-2-hydroxyphenyl)-3-ferrocenylprop-2-en-1-one [Compound 1e]",84.2 ± 4.8 µM,decrease in cytotoxic activity
"(E)-1-(3,5-dichloro-2-hydroxyphenyl)-3-ferrocenylprop-2-en-1-one [Compound 1d]",73.6 ± 2.6 µM,decrease in cytotoxic activity
"(E)-1-(3,5-difluoro-2-hydroxyphenyl)-3-ferrocenylprop-2-en-1-one [Compound 1f]",49.4 ± 1.3 µM,decrease in cytotoxic activity
(E)-1-(5-bromo-2-hydroxyphenyl)-3-ferrocenylprop-2-en-1-one [Compound 1c],44.6 ± 2.8 µM,–
(E)-1-(5-chloro-2-hydroxyphenyl)-3-ferrocenylprop-2-en-1-one [Compound 1b],29.5 ± 1.8 µM,–
